For data set [1], the system named is isolated human nasal chemosensory neurons. Put plainly: Electrophysiology: inward currents in isolated nasal chemosensory neurons. The class given is cell-based.
Data set [2] has as its system nasal septal chemosensory epithelium. Description: Electrophysiology: electrotonic depolarization of chemosensory epithelium. The class given is cell-based, human.
For data set [3], the system named is estrogen receptors. Put plainly: In vitro agonist/antagonist activity on steroid receptors.
Data set [4] deals with androgen receptors (Homo sapiens, UniProt P10275). Described as above.
Data set [5] deals with progestin receptors (Homo sapiens, UniProt P06401). The description is as above.
In data set [6] the target is glucocorticoid receptors (Homo sapiens, UniProt P04150). The data set is described as above.
The subject of data set [7] is receptors of indoleamine, monoamines, ion channels, receptors, peptides, opioid, glutamate neurotransmitter, steroid hormones, or glucocorticoid receptors. Description: In vitro receptor affinity panel. The class given is binding.
Data set [8] can be described thus: Ames reverse mutation assay.
The test system of data set [9] is bone marrow. Description: In vivo bone marrow micronucleus test.
Data set [10] concerns pregnant rats. Description: Reproductive toxicity study. The class given is in vivo, rat. The note with it: intravenous doses up to 2.5 mg/Kg/day during organogenesis.
For data set [11], the system named is pregnant rabbits. Put plainly: Reproductive toxicity study. The class given is in vivo, rabbit. The settings on record: intravenous doses up to 2.5 mg/Kg/day during organogenesis.
The format of data set [12] is in vivo. The settings on record: rat, repeated intranasal doses at 10 mg/Kg.
Data set [13] relates to mice of both sexes. Description: Intraperitoneal toxicity, 7-day observation. The class given is in vivo. The note with it: intraperitoneal up to 200 mg/Kg.
In data set [14] the test system is rats of both sexes. The class given is in vivo. The note with it: intravenous 1 mg/Kg.
The test system of data set [15] is mice. Put plainly: Intranasal and intravenous toxicity up to 2.5 mg/Kg. The class given is in vivo, mouse. The settings on record: intranasal and intravenous up to 2.5 mg/Kg.
For data set [16], the system named is rats. Described as above. The class given is in vivo, rat. The settings on record: intranasal and intravenous up to 2.5 mg/Kg.
Data set [17] concerns rabbits. The data set is described as above. The settings on record: intranasal and intravenous up to 2.5 mg/Kg. The class given is in vivo, rabbit.
Data set [18] relates to dogs. Described as above. The class given is in vivo, dog. The note with it: intranasal and intravenous up to 2.5 mg/Kg.
In data set [19] the test system is rats. Put plainly: One-month intranasal toxicity. The class given is in vivo, rat. The note with it: intranasal up to 50 μg/day for one month.
Data set [20] has as its system dogs. Description: 28-day intranasal toxicity. The class given is in vivo, dog. The note with it: intranasal up to 300 μg/day for 28 days.
In data set [21] the test system is healthy volunteers of both sexes. Description: Pilot trials, nasal administration. The class given is in vivo, human.
The subject of data set [22] is healthy individuals. Put plainly: Phase 1 open-label, flexible dose-escalation trial. The class given is in vivo, human. As for the experimental part: In a Phase 1 open-label, flexible dose-escalation trial, the pregn-4-en-20-yn-3-one was formulated as an aqueous solution at 8 μg/mL, with 2% propylene glycol and 2% ethanol, and was administered with a Valois intranasal metered spray pump delivering 50 μL, so that the pregn-4-en-20-yn-3-one was administered at 400 ng/spray. The low-dose group received 400, 400, 1600, 1600, 2800, and 2800 ng/day over the six-day period of the trial, while the high-dose group received 4000, 4000, 5200, 5200, 6400, and 6400 ng/day over the six-day period of the trial. The trial enrolled 10 individuals, 7 male and 3 female, between 21 and 38 years old, healthy, free of any Axis I diagnosis according to the DSM-IV-TR, and not taking any central nervous system medications.

Data set [23] relates to individuals meeting the diagnostic criteria for MDD. Put plainly: Phase 2 three-arm, double-blind, randomized trial in MDD. The class given is in vivo, human. The note with it: for decrease in average HRSD-17 score from baseline (standard deviation): eight weeks of treatment; for Cohen's d relative to placebo, HRSD-17 item 4 / Cohen's d relative to placebo, HRSD-17 score / decrease in HRSD-17 item 4 (initial insomnia) from baseline: eight weeks. On the procedure:
In a Phase 2 three-arm, double-blind, randomized trial, individuals received either placebo (a nasal solution containing no pregn-4-en-20-yn-3-one), 3200 ng/day of pregn-4-en-20-yn-3-one (“low dose”), or 6400 ng/day of pregn-4-en-20-yn-3-one (“high dose”), formulated and administered as in the Phase 1 trial. The placebo group and the low dose group administered two sprays per nostril twice/day, the high dose group administered two sprays per nostril four times/day. The trial enrolled 30 individuals, male and female between 18 and 60 years old, meeting the diagnostic criteria for MDD and free of any other Axis I diagnosis according to the DSM-IV-TR, non-suicidal, and not taking any central nervous system medications (including natural products such as St. John's wort). The individuals were required to have a minimum score on the Hamilton Rating Scale for Depression (HRSD-17), a 17-item scale designed for completion by a health professional following a structured interview with the individual, of at least 17, meaning that they were at least moderately depressed; and the primary efficacy criterion in the trial was reduction in HRSD-17 score from baseline.
The trial included ten weekly visits. At the first (screening) visit, the individuals were assessed for depression symptoms and randomized into treatment groups. […] At the second (baseline) visit, they were assessed, trained in self-administration of the nasal spray, and began self-administration of their trial medication. There were seven visits at which they were assessed while on treatment with their trial medication; and one follow-up visit one week after the end of medication administration at which they were given final assessments.
[Cohen's d is the mean difference between groups divided by the pooled standard deviation. For behavioral measures, a Cohen's d of 0.2 represents a small treatment effect; 0.5, a medium treatment effect; and 0.8, a large treatment effect.] […] HRSD-17 item 4 measures initial insomnia (difficulty in falling asleep early in the night), and is scored 0, for no difficulty falling asleep; 1, for complaints of occasional difficulty falling asleep, i.e. more than ½ hour; and 2, complaints of nightly difficulty falling asleep.

In data set [24] the test system is individuals diagnosed with MDD and insomnia. The note with it: cited from earlier work.
The mark [25] stands for this setting: Phase 1, intranasal 400-6400 ng/day over six days.
Setting [26] is: escitalopram plus cognitive behavioral therapy for insomnia.
Setting [27] is: escitalopram plus control quasi-desensitization therapy.

Read-outs that look alike come from different tables or passages of the source.

Chain of glucocorticoid receptors (P04150 whole entry): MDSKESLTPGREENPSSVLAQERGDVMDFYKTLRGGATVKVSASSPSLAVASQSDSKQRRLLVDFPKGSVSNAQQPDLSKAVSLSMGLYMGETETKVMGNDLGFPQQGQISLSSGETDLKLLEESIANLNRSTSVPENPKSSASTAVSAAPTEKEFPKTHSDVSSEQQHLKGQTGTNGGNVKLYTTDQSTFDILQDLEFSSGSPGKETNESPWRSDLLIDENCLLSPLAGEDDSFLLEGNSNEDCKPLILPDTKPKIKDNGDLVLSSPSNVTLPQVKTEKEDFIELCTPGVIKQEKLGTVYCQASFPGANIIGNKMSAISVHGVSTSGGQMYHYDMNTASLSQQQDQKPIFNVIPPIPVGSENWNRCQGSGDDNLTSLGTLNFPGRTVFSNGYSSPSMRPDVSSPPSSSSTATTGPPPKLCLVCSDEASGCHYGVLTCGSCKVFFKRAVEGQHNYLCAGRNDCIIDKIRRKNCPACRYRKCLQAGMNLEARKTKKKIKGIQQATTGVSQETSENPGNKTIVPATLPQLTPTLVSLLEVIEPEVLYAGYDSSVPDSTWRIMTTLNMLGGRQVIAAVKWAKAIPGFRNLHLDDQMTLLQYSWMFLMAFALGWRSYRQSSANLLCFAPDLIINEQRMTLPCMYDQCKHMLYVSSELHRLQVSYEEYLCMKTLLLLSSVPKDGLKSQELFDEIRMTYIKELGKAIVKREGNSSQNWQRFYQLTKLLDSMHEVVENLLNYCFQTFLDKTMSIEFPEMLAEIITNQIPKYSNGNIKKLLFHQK
Chain of progestin receptors (P06401 whole entry): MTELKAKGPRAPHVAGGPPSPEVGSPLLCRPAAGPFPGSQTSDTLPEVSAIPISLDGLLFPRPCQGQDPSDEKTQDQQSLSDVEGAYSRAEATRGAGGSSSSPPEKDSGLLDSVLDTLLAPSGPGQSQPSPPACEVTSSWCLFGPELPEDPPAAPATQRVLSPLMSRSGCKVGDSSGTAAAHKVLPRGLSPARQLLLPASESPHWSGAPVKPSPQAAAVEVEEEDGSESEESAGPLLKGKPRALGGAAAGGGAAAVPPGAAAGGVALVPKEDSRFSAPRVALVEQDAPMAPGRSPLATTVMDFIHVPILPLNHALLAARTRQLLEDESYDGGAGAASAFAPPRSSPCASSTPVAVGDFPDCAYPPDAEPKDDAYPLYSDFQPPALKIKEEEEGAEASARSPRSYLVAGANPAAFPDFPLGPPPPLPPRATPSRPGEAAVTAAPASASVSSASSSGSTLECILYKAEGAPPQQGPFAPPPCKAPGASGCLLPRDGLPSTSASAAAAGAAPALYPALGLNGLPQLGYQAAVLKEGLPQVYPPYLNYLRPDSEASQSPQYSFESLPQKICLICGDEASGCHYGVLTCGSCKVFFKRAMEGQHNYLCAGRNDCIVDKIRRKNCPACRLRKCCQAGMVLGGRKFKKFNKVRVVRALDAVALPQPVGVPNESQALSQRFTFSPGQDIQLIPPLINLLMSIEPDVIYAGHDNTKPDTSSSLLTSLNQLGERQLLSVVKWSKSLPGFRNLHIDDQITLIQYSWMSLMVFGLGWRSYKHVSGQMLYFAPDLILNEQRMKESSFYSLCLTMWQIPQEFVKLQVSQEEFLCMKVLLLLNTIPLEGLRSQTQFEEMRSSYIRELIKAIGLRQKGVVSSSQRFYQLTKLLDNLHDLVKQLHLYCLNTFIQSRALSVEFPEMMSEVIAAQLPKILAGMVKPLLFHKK
Chain of androgen receptors (P10275 whole entry): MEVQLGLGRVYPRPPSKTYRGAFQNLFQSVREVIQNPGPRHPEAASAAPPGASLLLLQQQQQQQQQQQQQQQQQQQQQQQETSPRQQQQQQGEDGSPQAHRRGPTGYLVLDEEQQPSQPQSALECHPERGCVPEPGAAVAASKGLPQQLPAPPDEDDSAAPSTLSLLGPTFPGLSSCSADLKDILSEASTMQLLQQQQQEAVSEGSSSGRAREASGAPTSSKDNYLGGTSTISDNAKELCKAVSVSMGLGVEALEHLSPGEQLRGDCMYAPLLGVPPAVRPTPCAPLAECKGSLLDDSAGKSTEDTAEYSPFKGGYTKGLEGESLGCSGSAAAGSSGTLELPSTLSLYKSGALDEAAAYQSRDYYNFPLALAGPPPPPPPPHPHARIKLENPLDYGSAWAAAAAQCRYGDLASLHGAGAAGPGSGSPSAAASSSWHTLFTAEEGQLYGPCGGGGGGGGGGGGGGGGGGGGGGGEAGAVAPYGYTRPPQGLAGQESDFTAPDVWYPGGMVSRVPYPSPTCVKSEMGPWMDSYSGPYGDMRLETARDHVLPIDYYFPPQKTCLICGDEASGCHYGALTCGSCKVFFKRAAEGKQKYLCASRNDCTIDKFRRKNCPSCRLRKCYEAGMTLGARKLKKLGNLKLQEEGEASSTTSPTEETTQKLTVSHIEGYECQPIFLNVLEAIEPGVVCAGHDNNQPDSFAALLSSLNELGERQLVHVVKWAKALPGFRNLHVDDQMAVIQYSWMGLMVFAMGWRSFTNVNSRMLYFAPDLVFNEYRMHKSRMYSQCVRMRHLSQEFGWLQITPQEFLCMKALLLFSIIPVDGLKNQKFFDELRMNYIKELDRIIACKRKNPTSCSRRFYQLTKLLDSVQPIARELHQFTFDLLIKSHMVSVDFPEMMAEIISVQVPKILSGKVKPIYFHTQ

For the compound `C#C[C@H]1CC[C@H]2[C@@H]3CCC4=CC(=O)CC[C@]4(C)[C@H]3CC[C@]12C` [pregn-4-en-20-yn-3-one, Pregn-4-en-20-yn-3-one], in data set [1], the “inward currents in isolated human nasal chemosensory neurons” value is given as “induced inward currents”. Also, the “concentration of maximal response (amplitude)” value in [1] (amplitude increased depending on concentration) is recorded as 10^−7 to 10^−5 M. Also, the “electrotonic depolarization of the nasal septal chemosensory epithelium” value in [2] is given as “electrotonic depolarization”. In addition, the “agonist or antagonist activity” value in [3], in [4], in data set [5] and in data set [6] was “no agonist or antagonist activity” each time. Moreover, the affinity for receptors result in data set [7] is “nor was there any affinity”. Moreover, the “mutagenic or clastogenic potential” value in data set [8] and in data set [9] was “no evidence of mutagenic or clastogenic potential” each time. Moreover, the “adverse effects on maternal or litter parameters” value in [10] and in data set [11] was “no adverse effects on maternal or litter parameters” each time. Also, the systemic exposure result in data set [12] was “very low systemic exposure (below the limit of accurate quantitation)”. Besides, the “macroscopic or microscopic changes in organs” value in data set [13] is “no macroscopic or microscopic changes”. In data set [13] (7-day period), the “mortality or adverse symptoms” value is reported as “no mortality or adverse symptoms”. In addition, the pathological changes result in data set [14] is on record as “no pathological changes”. Besides, the changes in behavior entry in data set [14] (8-day period) is listed as “no changes in behavior”. Also, the “deaths, adverse clinical signs, physiological changes, clinical laboratory parameters” value was “no deaths or adverse clinical signs, no physiological changes, or changes in clinical laboratory parameters” in [15]; “no deaths or adverse clinical signs, no physiological changes, or changes in clinical laboratory parameters” in [16]; “no deaths or adverse clinical signs, no physiological changes, or changes in clinical laboratory parameters” in data set [17]; “no deaths or adverse clinical signs, no physiological changes, or changes in clinical laboratory parameters” in data set [18]. In addition, the “deaths, adverse clinical signs, laboratory or pathology parameters” value is “no deaths or adverse clinical signs or effects on laboratory or pathology parameters” in data set [19] and “no deaths or adverse clinical signs or effects on the laboratory or pathology parameters” in data set [20]. Further, the “change in heart rate” value in [21] (intranasal) was “did not produce statistically significant change”. Moreover, the “change in respiratory rate” value in [21] (intranasal) is reported as “did not produce statistically significant change”. Further, the “duration of the QTC intervals of the electrocardiogram” value in data set [21] (intranasal) is “did not change”. The “effect on alpha and beta frequency bands of electroencephalogram” value in [21] (intranasal) is recorded as “did not have significant effect”. Further, the “effect on body temperature” value in data set [21] (intranasal) is recorded as “did not have significant effect”. Moreover, the “frequency of electrodermal activity events (skin conductance)” value in [21] (intranasal) was “did significantly increase”. Moreover, the tolerability result in data set [21] (nasal administration) is “well tolerated”. For the same compound, the “differences in clinical laboratory values, neuropsychological functioning, brain activity between doses or visits” value in data set [22] (Phase 1) is given as “No statistically significant differences”. The “differences in safety parameters between the three doses of each treatment group” value in [22] (Phase 1) was “no statistically significant differences”. In addition, in [22] (setting [25]), the “most frequent adverse events” value was “increased appetite, and dizziness in the high dose group”. Further, the serious adverse events result was “no serious adverse events” in data set [22] (setting [25]) and “no serious adverse events reported” in data set [23] (Phase 2, any of the groups). The “decrease in average HRSD-17 score from baseline (standard deviation)” value in data set [23] (high dose 6400 ng/day intranasal) is reported as 18.6 (8.7); in data set [23] (low dose 3200 ng/day intranasal), 18.3 (7.7). For the same compound, the results for the “Cohen's d relative to placebo, HRSD-17 item 4” value in data set [23] (high dose 6400 ng/day) and in data set [23] (low dose 3200 ng/day) were 1.60 and 0.39, respectively. Moreover, the “Cohen's d relative to placebo, HRSD-17 score” value in data set [23] (high dose 6400 ng/day) was found to be 0.82; in data set [23] (low dose 3200 ng/day) it was 0.86. The “decrease in HRSD-17 item 4 (initial insomnia) from baseline” value in data set [23] (high dose 6400 ng/day) is recorded as 1.4 (0.25); in data set [23] (low dose 3200 ng/day) it was 0.6 (0.3). Besides, the “time to effect on a depressive disorder or its symptoms” value in data set [23] (nasal administration) is listed as no more than 1 week.

In the case of `CN(C)CCC[C@@]1(c2ccc(F)cc2)OCc2cc(C#N)ccc21` [escitalopram], in data set [24] (setting [26]), the “rate of remission of the depression” value is listed as 61.5% and the remission of insomnia is 50.0%. In data set [24] (setting [27]), the “rate of remission of the depression” value is recorded as 33.3% and the remission of insomnia was 7.7%.

The record behind these values is patent US10322138B2, “Treatment of depressive disorders” (Pherin Pharmaceuticals, Inc., priority 2012, dated 2019).
